Results as given in ChEMBL document CHEMBL1129505, “Time-dependent inactivation of aromatase by 6-alkylandrosta-1,4-diene-3,17-diones. Effects of length and configuration of 6-alkyl group” (J Med Chem, 1996).

How the values were obtained:
Aromatase [1] = molecular target: T1, Aromatase (Homo sapiens, UniProt P11511); assay: Catalytic rate constant for time dependent inactivation of Cytochrome P450 19A1; NT= time-dependent inactivation not observed
T1 sequence (P11511 whole entry): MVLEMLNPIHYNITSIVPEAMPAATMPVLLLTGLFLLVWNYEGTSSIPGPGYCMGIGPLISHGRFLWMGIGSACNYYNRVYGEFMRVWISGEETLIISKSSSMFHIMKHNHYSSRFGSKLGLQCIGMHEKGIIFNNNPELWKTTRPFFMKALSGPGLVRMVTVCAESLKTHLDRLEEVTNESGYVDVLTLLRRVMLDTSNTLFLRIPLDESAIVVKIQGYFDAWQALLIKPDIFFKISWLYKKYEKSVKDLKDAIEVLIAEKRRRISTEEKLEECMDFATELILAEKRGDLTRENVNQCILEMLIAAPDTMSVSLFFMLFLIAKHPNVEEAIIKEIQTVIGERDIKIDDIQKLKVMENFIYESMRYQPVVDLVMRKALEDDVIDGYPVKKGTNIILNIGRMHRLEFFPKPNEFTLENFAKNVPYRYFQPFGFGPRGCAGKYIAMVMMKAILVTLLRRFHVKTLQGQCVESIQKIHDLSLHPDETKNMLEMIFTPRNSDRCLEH

Aromatase [2] = molecular target: T1, Aromatase; assay: In vitro inhibitory activity against Cytochrome P450 19A1 in human placental microsomes; set-up: species or system Placenta
Aromatase [3] = molecular target: T1, Aromatase; assay: Apparent inhibition constant (Ki) Cytochrome P450 19A1; conditions: read-out: Ki app
Aromatase [4] = molecular target: T1, Aromatase; assay: Inactivation constant (Ki) for time-dependent inactivation of Cytochrome P450 19A1; NT= time-dependent inactivation not observed
CYP19A1 (aromatase) = molecular target: T2, CYP19A1 (aromatase) (Homo sapiens, UniProt P11511); assay: Catalytic rate constant for time dependent inactivation of Cytochrome P450 19A1
T2 sequence (P11511 whole entry): T1 sequence (P11511 whole entry)

Aromatase [5] = molecular target: T1, Aromatase; assay: Inactivation constant (Ki) for time-dependent inactivation of Cytochrome P450 19A1

CCCCCCC[C@H]1CC2C(CCC3(C)C(=O)CCC23)C2(C)C=CC(=O)C=C12 (stereo not given in full)
K inact (Aromatase [1]): Inactivation not observed | IC50 (Aromatase [2]): 250 nM | Ki (Aromatase [3]): 20 nM | Ki (Aromatase [4]): Inactivation not observed

C[C@@H]1CC2C(CCC3(C)C(=O)CCC23)C2(C)C=CC(=O)C=C12 (stereo not given in full)
kinact (CYP19A1 (aromatase)): 0.00102 s⁻¹

CCCCC[C@H]1CC2C(CCC3(C)C(=O)CCC23)C2(C)C=CC(=O)C=C12 (stereo not given in full)
K inact (Aromatase [1]): Inactivation not observed | IC50 (Aromatase [2]): 140 nM | Ki (Aromatase [3]): 11 nM | Ki (Aromatase [4]): Inactivation not observed

CCCCCC[C@H]1CC2C(CCC3(C)C(=O)CCC23)C2(C)C=CC(=O)C=C12 (stereo not given in full)
IC50 (Aromatase [2]): 280 nM | kinact (CYP19A1 (aromatase)): 0.000833 s⁻¹ | Ki (Aromatase [3]): 25 nM | Ki (Aromatase [5]): 650 nM

CCCCCC[C@@H]1CC2C(CCC3(C)C(=O)CCC23)C2(C)C=CC(=O)C=C12 (stereo not given in full)
K inact (Aromatase [1]): Inactivation not observed | IC50 (Aromatase [2]): 76 nM | Ki (Aromatase [3]): 8 nM | Ki (Aromatase [4]): Inactivation not observed

CCCC[C@H]1CC2C(CCC3(C)C(=O)CCC23)C2(C)C=CC(=O)C=C12 (stereo not given in full)
IC50 (Aromatase [2]): 200 nM | kinact (CYP19A1 (aromatase)): 0.000483 s⁻¹ | Ki (Aromatase [3]): 16 nM | Ki (Aromatase [5]): 571 nM

CC[C@H]1CC2C(CCC3(C)C(=O)CCC23)C2(C)C=CC(=O)C=C12 (stereo not given in full)
IC50 (Aromatase [2]): 250 nM | kinact (CYP19A1 (aromatase)): 0.00108 s⁻¹ | Ki (Aromatase [3]): 19 nM | Ki (Aromatase [5]): 196 nM

CC[C@@H]1CC2C(CCC3(C)C(=O)CCC23)C2(C)C=CC(=O)C=C12 (stereo not given in full)
K inact (Aromatase [1]): Inactivation not observed | IC50 (Aromatase [2]): 54 nM | Ki (Aromatase [3]): 4.7 nM | Ki (Aromatase [4]): Inactivation not observed

CCCC[C@@H]1CC2C(CCC3(C)C(=O)CCC23)C2(C)C=CC(=O)C=C12 (stereo not given in full)
K inact (Aromatase [1]): Inactivation not observed | IC50 (Aromatase [2]): 180 nM | Ki (Aromatase [3]): 14 nM | Ki (Aromatase [4]): Inactivation not observed

CCCCCCC[C@@H]1CC2C(CCC3(C)C(=O)CCC23)C2(C)C=CC(=O)C=C12 (stereo not given in full)
K inact (Aromatase [1]): Inactivation not observed | IC50 (Aromatase [2]): 60 nM | Ki (Aromatase [3]): 7.8 nM | Ki (Aromatase [4]): Inactivation not observed

C[C@H]1CC2C(CCC3(C)C(=O)CCC23)C2(C)C=CC(=O)C=C12 (stereo not given in full)
kinact (CYP19A1 (aromatase)): 0.0008 s⁻¹

CCC[C@@H]1CC2C(CCC3(C)C(=O)CCC23)C2(C)C=CC(=O)C=C12 (stereo not given in full)
K inact (Aromatase [1]): Inactivation not observed | IC50 (Aromatase [2]): 60 nM | Ki (Aromatase [3]): 7 nM | Ki (Aromatase [4]): Inactivation not observed

CCCCC[C@@H]1CC2C(CCC3(C)C(=O)CCC23)C2(C)C=CC(=O)C=C12 (stereo not given in full)
K inact (Aromatase [1]): Inactivation not observed | IC50 (Aromatase [2]): 54 nM | Ki (Aromatase [3]): 5 nM | Ki (Aromatase [4]): Inactivation not observed

CCC[C@H]1CC2C(CCC3(C)C(=O)CCC23)C2(C)C=CC(=O)C=C12 (stereo not given in full)
IC50 (Aromatase [2]): 270 nM | kinact (CYP19A1 (aromatase)): 0.000733 s⁻¹ | Ki (Aromatase [3]): 22 nM | Ki (Aromatase [5]): 339 nM
